Measured values taken from patent US20100168016A1, “DIAGNOSIS AND TREATMENT OF DISEASES CAUSED BY MISFOLDED PROTEINS” (THE JACKSON LABORATORY, priority 2007, published 2010).
Residues, ends and D or L forms follow the SMILES beside them. *: point of attachment. Cbz = O=C(OCc1ccccc1)*

How the values were obtained:
[1] = tested on: HA-ANKRD16^CAST-transfected COS-7 cells; assay: subcellular localization of ANKRD16 in transfected COS-7 cells; format: cell-based, monkey; conditions: for relocalization of ANKRD16: 10 μM MG132 or 10 μM epoximicin or 3-MA, 24 hours after transfection, within 12 hours of treatment
Experimental: Cellular localization of full-length ANKRD16 was determined by transfection of epitope-tagged full-length ANKRD16^CAST into monkey kidney fibroblast COS-7 cells and human alveolar epithelial A549 cells. The ANKRD16 coding sequence was amplified by polymerase chain reaction from cDNA by using Pfu DNA polymerase (Stratagene), purified by agarose gel electrophoresis and ligated in-frame with the HA-tag into the pcDNA3 vector. This clone encoded a fusion ANKRD16 with the tag at its C-terminus. All DNA constructs were confirmed by sequencing. COS-7 and A549 cells were maintained in Dulbecco's modified Eagle's medium (Sigma-Aldrich). All cells were grown at 37° C. in 5% CO2 and supplemented with 10% (vol/vol) fetal calf serum, 100 U/ml penicillin and 100 μg/ml streptomycin. Transfections were performed using Lipofectamine 2000 transfection reagent (Invitrogen, USA) according to the manufacturer's protocol. Cells were cultured for 48 h after transfection.
To determine if the induction of autophagy changes the intracellular localization of ANKRD16, we treated transfected cells with rapamycin to induce macroautophagy (data not shown) or performed serum starvation experiments (known to induce chaperone-mediated autophagy after 18 hours) on transfected cells (data not shown). COS-7 cells were transfected with full-length HA-ANKRD16^CAST constructs. […] Nor was co-localization observed with endosome, autophagosome or lysosome markers (data not shown) in the presence or absence of rapamycin or proteasome inhibitors administered as described below.
Several proteins that regulate protein folding and/or the disposal of misfolded proteins are induced or change their subcellular localization in response to misfolded protein stress. To examine if subcellular localization changes with intracellular accumulation of misfolded proteins, we treated full-length HA-ANKRD16^CAST-transfected COS-7 cells 24 hours after transfection with proteosome inhibitors, 10 μM MG132 (Sigma-Aldrich) or 10 μM epoximicin (Sigma-Aldrich) or blocked autophagy with 3-methyladenine (3-MA; Sigma-Aldrich). […]
For immunostaining the cells were fixed with 4% paraformaldehyde (PFA) at room temperature for 5 min, then incubated with anti-ubiquitin, anti-HA, anti-r-tubulin, and anti-vimentin antibodies overnight at 4° C. […] The fluorescence was detected under a fluorescence microscope.

[2] = tested on: mouse embryonic fibroblasts from CASTEi/J mice; assay: aggresome localization of ANKRD16 in fibroblasts under proteasomal stress; format: cell-based; conditions: 1 μM epoximicin for 18 hours
Experimental: Mouse embryonic fibroblasts were isolated from CASTEi/J mice. To isolate embryonic fibroblasts, CASTEi/J mice were paired for time of pregnancy. E13.5 day pregnant female mice for each of the strains were sacrificed. The time point E0.5 is the morning of finding a plug after pairing a female with a male. The uteri were removed and placed into a dish with PBS and washed. The embryos were isolated free of extraembryonic tissue and washed in PBS. Each embryo was placed into a separate 14 ml tube containing 3 ml of media (DMEM, 10% FBS) and homogenized for 2 seconds. The homogenized tissues were put into 145 mm tissue culture plates (e.g. CellStar from USA Scientific cat.#5663-9160) containing 20 ml of media (DMEM, 10% FBS). The cells were incubated at 37° C. in 5% CO2 until cells were confluent, which was on average from 5 to 7 days. The cells were expanded according to standard tissue culture methods using trypsin and the same passage number for each cell line was used for the experiment. To stress the fibroblast they were treated for 18 hours with 1 μM epoximicin, a proteosome inhibitor (Genaxxon). Then untreated and treated cells were fixed, visualized for ANKRD16 expression using indirect immunofluorescence with polyclonal ANKRD16 rabbit antibody as primary antibody and Alexa555-conjugated anti-rabbit IgG (Invitrogen, Molecular Probes) as secondary antibody. […]

| Structure (SMILES) | relocalization of ANKRD16 [1] | localization of ANKRD16 [2] | formation of the aggresome structure ([1]; 10 μg/ml nocodazole) |
| --- | --- | --- | --- |
| Cn1cnc(N)c2ncnc1-2 [3-methyladenine] | Relocalization of ANKRD16 to a juxtanuclear structure | – | – |
| CC(C)C[C@@H](C=O)NC(=O)[C@H](CC(C)C)NC(=O)[C@H](CC(C)C)NC(=O)OCc1ccccc1 [MG132] (Cbz-Leu-Leu-Leu-aldehyde) | Relocalization of ANKRD16 to a juxtanuclear structure | – | – |
| CC[C@H](C)[C@H](NC(=O)[C@H]([C@@H](C)CC)N(C)C(C)=O)C(=O)N[C@H](C(=O)N[C@@H](CC(C)C)C(=O)[C@@]1(C)CO1)[C@@H](C)O [epoximicin] | Relocalization of ANKRD16 to a juxtanuclear structure | relocalized to the aggresome | – |
| COC(=O)Nc1nc2ccc(C(=O)c3cccs3)cc2[nH]1 [nocodazole] | – | – | disrupted |
